Assays:
[1] = test system: K562 (chronic myelogenous leukemia; leukemia cell line +ve for Bcr-Abl); experiment: Cancer cell assay, tumor cells K562; format: cell-based; settings: Homo sapiens, compound in DMSO 0.01 μM to 100 μM, examined 96 hours later, viable cells by trypan blue exclusion
Description: (§1) The effect of the compounds of the invention on tumor cells was determined by the assay described by Latham et al., Oncogene 12:827-837 (1996). Tumor cells K562 (chronic myelogenous leukemia; leukemia cell line +ve for Bcr-Abl) or DU145 (prostate cancer) were plated in 12-well dishes at a cell density of 2.5×10^4 cells well. The plated cells were treated 24 hours later with a compound of the invention dissolved in DMSO at multiple concentrations ranging from 0.01 μM to 100 μM. The plates were examined 96 hours later under an inverted microscope, Olympus CK-2 using a 10× objective, and compound activity was noted by physical observation. When necessary, the total number of viable cells was determined by trypsinizing the wells and counting the number of viable cells, as determined by trypan blue exclusion, using a hemacytometer.

DU145 (prostate cancer) = experiment: Cancer cell assay, tumor cells DU145; format: cell-based; settings: Homo sapiens, examined 96 hours later, viable cells by trypan blue exclusion
Description: as §1

[2] = DU-145, compound in DMSO 0.01 μM to 100 μM

| IC50 [1] [µM] | IC50 (DU145 (prostate cancer); [2]) [µM] | melting point [°C] | SMILES | IC50 ([1]; K562, 96 h) [µM] | IC50 (DU145 (prostate cancer); DU-145, 96 h, compound in DMSO 0.01 μM to 100 μM) [µM] |
| --- | --- | --- | --- | --- | --- |
| 0.05 | 0.15 | – | COc1ccc(CS(=O)(=O)CCc2c(OC)cc(OC)cc2OC)cc1 [Example 20, 1,3,5-Trimethoxy-2-(2-((4-methoxybenzyl)sulfonyl)ethyl)benzene] | – | – |
| 5 | 15 | – | COc1ccc(C(=O)NCCc2c(OC)cc(OC)cc2OC)cc1 [Example 30, 4-methoxy-N-(2,4,6-trimethoxyphenethyl)benzamide] | – | – |
| 0.003 | 0.005 | – | COc1cc(OC)c(CCS(=O)(=O)Nc2ccc(OC)c(N)c2)c(OC)c1 [Example 19, N-(3-Amino-4-methoxyphenyl)-2-(2,4,6-trimethoxyphenyl)ethanesulfonamide] | – | – |
| 10 | 10 | 265 to 267 | O=C(O)c1ccc(CCS(=O)(=O)Cc2ccc(Cl)cc2)cc1 [Example 6, 4-(2-((4-Chlorobenzyl)sulfonyl)ethyl)benzoic acid] | – | – |
| > 10 | > 10 | – | COc1cc(OC)c(CCNS(=O)(=O)c2ccc(C)cc2)c(OC)c1 [Example 29, 4-methyl-N-(2,4,6-trimethoxyphenethyl)benzenesulfonamide] | – | – |
| 0.15 | 5 | – | COc1cc(OC)c(CCC(=O)Nc2ccc(OC)c(N)c2)c(OC)c1 [Example 7, N-(3-Amino-4-methoxyphenyl)-3-(2,4,6-trimethoxyphenyl)propanamide] | – | – |
| 75 | 75 | – | COc1ccc(CCNS(=O)(=O)c2ccc(OC)cc2)cc1 [Example 27, 4-methoxy-N-(4-methoxyphenethyl)benzenesulfonamide] | – | – |
| > 10 | > 10 | – | COc1ccc(S(=O)(=O)NCCc2c(OC)cc(OC)cc2OC)cc1 [Example 28, 4-methoxy-N-(2,4,6-trimethoxyphenethyl)benzenesulfonamide] | – | – |
| 0.15 | 0.15 | – | COC(=O)CNc1cc(CS(=O)(=O)CCc2c(OC)cc(OC)cc2OC)ccc1OC [Example 8] | – | – |
| 75 | 75 | – | COc1cc(OC)c(CCNC(=O)c2ccc(OC)c([N+](=O)[O-])c2)c(OC)c1 [Example 34, 4-methoxy-3-nitro-N-(2,4,6-trimethoxyphenethyl)benzamide] | – | – |
| 0.003 | 0.0075 | 136 to 138 | COc1cc(OC)c(CCS(=O)(=O)Cc2ccc(OC)c(O)c2)c(OC)c1 [Example 5, 2-Methoxy-5-(((2,4,6-trimethoxyphenethyl)sulfonyl)methyl)phenol] | – | – |
| 35 | 35 | – | COc1cc(OC)c(CCNS(=O)(=O)c2ccc(OC)c([N+](=O)[O-])c2)c(OC)c1 [Example 25, 4-methoxy-3-nitro-N-(2,4,6-trimethoxyphenethyl)benzenesulfonamide] | – | – |
| 60 | 60 | – | COc1ccc(CCNS(=O)(=O)c2ccc(C)cc2)cc1 [Example 22, N-(4-methoxyphenethyl)-4-methylbenzenesulfonamide] | – | – |
| 5 | 15 | – | COc1cc(CSCCc2ccc(OC)c(OC)c2)ccc1O [Example 37, 4-(((3,4-dimethoxyphenethyl)thio)methyl)-2-methoxyphenol] | – | – |
| 2.5 | 15 | – | COc1ccc(CCS(=O)(=O)Nc2c(OC)cc(OC)cc2OC)cc1 [Example 36, 2-(4-methoxyphenyl)-N-(2,4,6-trimethoxyphenyl)ethanesulfonamide] | – | – |

The next lines start with the molecule.

| SMILES | IC50 [1] [µM] | IC50 (DU145 (prostate cancer); [2]) [µM] | melting point [°C] | IC50 ([1]; K562, 96 h) [µM] | IC50 (DU145 (prostate cancer); DU-145, 96 h, compound in DMSO 0.01 μM to 100 μM) [µM] |
| --- | --- | --- | --- | --- | --- |
| COc1cc(OC)c(CCS(=O)(=O)Cc2ccc(OC)c(NCC(=O)O)c2)c(OC)c1 [Example 4] | 0.5 | 0.25 | 146 to 150 | – | – |
| COc1ccc(CCNC(=O)c2ccc(OC)cc2)cc1 [Example 31, 4-methoxy-N-(4-methoxyphenethyl)benzamide] | 100 | 75 | – | – | – |
| O=S(=O)(CCc1ccc(F)cc1)Cc1ccc(Cl)cc1 [Example 2, 1-Chloro-4-(((4-fluorophenethyl)sulfonyl)methyl)benzene] | 1.5 | 1.5 | 142 to 144 | – | – |
| COc1ccc(CCNS(=O)(=O)c2ccc(OC)c([N+](=O)[O-])c2)cc1 [Example 23, 4-methoxy-N-(4-methoxyphenethyl)-3-nitrobenzenesulfonamide] | 35 | 35 | – | – | – |
| COc1cc(CS(=O)(=O)CCc2ccc(OC)c(OC)c2)ccc1O [Example 38, 4-(((3,4-dimethoxyphenethyl)sulfonyl)methyl)-2-methoxyphenol] | > 10 | > 10 | – | – | – |
| COc1cc(OC)c(CCNS(=O)(=O)c2ccc(OC)c(N)c2)c(OC)c1 [Example 26, 3-amino-4-methoxy-N-(2,4,6-trimethoxyphenethyl)benzenesulfonamide] | 0.75 | 5 | – | – | – |
| COc1ccc(CCNC(=O)c2ccc(OC)c([N+](=O)[O-])c2)cc1 [Example 32, 4-methoxy-N-(4-methoxyphenethyl)-3-nitrobenzamide] | 75 | 75 | – | – | – |
| COC(=O)CN(CC(=O)OC)c1cc(CS(=O)(=O)CCc2c(OC)cc(OC)cc2OC)ccc1OC [Example 9, Dimethyl 2,2′-((2-methoxy-5-(((2,4,6-trimethoxyphenethyl)sulfonyl)methyl)phenyl)azanediyl)diacetate] | 2 | 2 | 86 to 88 | – | – |
| COc1cc(OC)c(CCS(=O)(=O)Cc2ccc(OC)c(N)c2)c(OC)c1 [Example 3, 2-Methoxy-5-(((2,4,6-trimethoxyphenethyl)sulfonyl)methyl)aniline] | 0.0025 | 0.003 | 128 to 130 | – | – |
| COc1cc(OC)c(CCS(=O)(=O)Cc2ccc(OC)c(NCC(=O)O)c2)c(OC)c1 [Example 21, 2 ((2-methoxy-5-(((2,4,6-trimethoxyphenethyl)sulfonyl)methyl)phenyl)amino)acetate] | – | – | – | 0.04 | 0.15 |
| COc1cc(OC)c(CCNC(=O)c2ccc(OC)c(N)c2)c(OC)c1 [Example 35, 3-amino-4-methoxy-N-(2,4,6-trimethoxyphenethyl)benzamide] | 0.5 | 5 | – | – | – |
| COc1ccc(CCNC(=O)c2ccc(OC)c(N)c2)cc1 [Example 33, 3-amino-4-methoxy-N-(4-methoxyphenethyl)benzamide] | 75 | 75 | – | – | – |

From patent US10207989B2, “Substituted alkyl diaryl derivatives, methods of preparation and uses” (TEMPLE UNIVERSITY—OF THE COMMONWEALTH SYSTEM OF HIGHER …, priority 2012, dated 2019)
